In patent US20120309734A1, “COMBRETASTATIN DERIVATIVES AND USES THEREFOR” (priority 2009, published 2012):

Tested on: primary endothelial cell (HUVEC)
Test: Endothelial cell proliferation, AlamarBlue
Assay type: cell-based
Conditions: Homo sapiens, 72 h, read-out: IC50, proliferation of HUVECs
Method: A range of concentrations of cis β-lactam 4, were tested on primary endothelial cell (HUVEC) proliferation. HUVEC cells (20,000 cells/well) were seeded onto 96-well plates for 24 h and treated in triplicate with vehicle alone (1% (v/v) ethanol) or a range of concentrations of compound 4 for 72 h. The cells were then incubated in 10% (v/v) AlamarBlue and its reduction to a fluorescent state measured at excitation 544 nm and emission 590 nm using a multi-well fluorimeter. The results were expressed as the percentage cell proliferation relative to vehicle-treated control cells (100%). Values represent the mean±the S.E.M for three separate experiments. IC50 values were obtained using Prism GraphPad 4.
Pooled primary human umbilical vein endothelial cells (HUVECs) and their associated reagents were all obtained from Cascade Biologics, Invitrogen, Carlsbad, Calif., USA. HUVECs were maintained between passages 1-4 in Medium 200 supplemented with LSGS (low serum growth factor supplement) and utilised for experiments at passage 4.

`COc1ccc(C2C(c3ccccc3)C(=O)N2c2cc(OC)c(OC)c(OC)c2)cc1O` (stereo not shown) [Compound 4, 4-(3-Hydroxy-4-methoxyphenyl)-3-phenyl-1-(3,4,5-trimethoxyphenyl)-azetidin-2-one] gave an IC50 of 4 nM.
